Experiments:
[1] = system: fatty liver (carbon tetrachloride); assay: Therapeutic effect on fatty liver (carbon tetrachloride model); format: in vivo, male rat (35 week-old, SD strain); details: for Degree of fatty liver (histopathological examination): 10 days, one symbol per animal
Protocol: Carbon tetrachloride also induces fatty liver, but the picture of disease differs from the case of ethionine-induced fatty liver. Carbon tetrachloride is generally considered to damage microsome and thereby to inhibit protein synthesis and induce fatty liver.
Carbon tetrachloride was subscutaneously administered to 35 week-old male rat (SD strain) for 4 days at the dose of 1 ml/kg. The treated animals were left for 3 days after the last administration to maximize the manifestation of fatty liver.
Administration of the compounds of this invention was commenced on the fourth day after the administration of carbon tetrachloride was completed. It was orally given everyday for 10 days at the dose of 50 or 250 mg/kg. On the 11th day, the animals were sacrificed. The therapeutic effect was evaluated by determining the content of lipid in the liver (triglyceride and total lipid) and examining the histopathological changes. Triglyceride and total lipid were determined colorimetrically by chromotropic acid method and Bragdon's oxidation method, respectively.
Indices for the histopathological change is as follows.

[2] = Effect on glucose metabolism (blood sugar after glucose load); format: in vivo, mice; details: for Blood Sugar: 250 mg/kg oral 6 h before glucose 4.0 g/kg
Protocol: The test compounds dissolved in olive oil and administered orally at the dose of 250 mg/kg to the mice. After 6 hours, 4.0 g/kg of glucose was orally administered. The same amount of glucose was given to the control animals. 0.02 ml of blood was taken from caudal vein of the mice at 30, 60, 90 and 120 min. after glucose administration. Blood sugar was measured by the procedure of Somogyi-Nelson. Number of animals used was 5 to 6 mice for each treatment.

[3] = system: fatty liver (ethionine); assay: Effect on fatty liver (ethionine model); format: in vivo, male mice (4 week-old, dd-strain); details: diet plus 0.2% ethionine and 0.2% compound, 5 days
From the text: There are known many factors inducing fatty liver. But, the fatty liver is grouped into a couple of patterns from the mechanism of lipid accumulation or metabolism of lipoprotein in the liver. Ethionine is a typical compound inducing fatty liver. It inhibits RNA and protein syntheses and destructs polysome of the liver cell. Fatty liver is induced by the inhibition of protein synthesis and the disturbance of lipoprotein secretion.
Usually, fatty liver is closely related to the accumulation of triglyceride in the liver. In the present example, the degree of fatty liver and protective or therapeutic effect against the fatty liver was evaluted by measurement of triglyceride content in the liver.
The animals used in the test were 4 week-old male mice (dd-strain).
The mice were submitted for 5 days to a normal diet (control), to the normal diet plus 0.2% ethionine (positive control), to the normal diet plus 0.2% ethionine and 0.2% of the compound of this invention, or to the normal diet plus 0.2% ethionine and 0.2% methionine which was the referential diet. At the end of the period of 5 days, content of triglyceride in the liver was studied colorimetrically by chromotropic acid method and the result was represented as triolein content (mg/g-liver).

[4] = system: acute liver damage associated with discrete lobular necrosis (D-galactosamine); assay: Protective effect on acute hepatitis with mesenchymal reaction and discrete lobular necrosis (D-galactosamine model); format: in vivo, male rat (SD strain); details: 100 mg/kg oral 6 h before D-galactosamine
Protocol: D-Galactosamine is a compound which induces a discrete lobular necrosis associated with mesenchymal reaction similar to the change observed in human viral hepatitis, so that it is frequently used in producing a model for viral hepatitis.
The compound of this invention or anethol trithion was administered orally to the male rat (SD strain) at the dose of 100 mg/kg. Six hours after it, D-galacetosamine was intraperitoneally administered at the dose of 600 mg/kg. Four hours after it, an additional 300 mg/kg was administered intraperitoneally. Eight hours after it, the animals were sacrificed to collect the blood samples. P-GPT activity and triglyceride in the liver were measured to evaluate the effect of the compound of this invention.

[5] = system: cirrhosis (carbon tetrachloride); assay: Therapeutic effect on cirrhosis (carbon tetrachloride); format: in vivo, male rat (4 week-old SD-strain); details: for Degree of cirrhosis (histopathological examination): 2000 ppm diet, one symbol per animal; for p-GOT activity / p-GPT activity: diet containing 2000 ppm
Protocol: The therapeutic effect of the compound of this invention on cirrhosis, which had been caused by carbon tetrachloride administration, was examined.
A 10% solution of carbon tetrachloride in olive oil was administered to the male rat (4 week-old SD-strain) intraperitoneally at the dose of 0.5 ml carbon tetrachloride/kg twice a week for a period of 10 weeks, to induce cirrhosis. Four days after the final administration of carbon tetrachloride, the formation of pseudo-lobulus was confirmed. Then the diseased animals were divided into two groups. Therapeutic group was submitted a diet containing 2000 ppm of Compound 4, while the positive control group was submitted a normal diet. Control group, to which olive oil alone had been administered, was submitted a normal diet.
At 1, 2, 4 and 8 weeks after beginning of Compound 4 feeding, 5 animals from each group were sacrificed, and the therapeutic effect on cirrhosis was evaluated by examining plasma transaminase activity (p-GPT and p-GOT, Reitman-Frankel method) and observing histopathological changes.
Degree of cirrhosis in the histopathological examination was graded as follows: […]

[6] = system: bile flow and biliary salt; assay: Cholagogic action: bile flow and excretion of biliary salt; format: in vivo, male rat (4 week-aged, SD-JCL strain); details: 200 mg/kg oral; for bile flow / excretion of biliary salt: before treatment = 100
[7] = 50 mg/kg oral everyday for 10 days
[8] = 250 mg/kg oral everyday for 10 days

SMILES: CC(C)OC(=O)C(C(=O)OC(C)C)=C1SCCS1 [Compound 4, Diisopropyl 1,3-dithiolan-2-yliden malonate]
- Total lipid [1, 7]: 107.6 ± 12.3 mg/g-liver
- Triglyceride [1, 7]: 42.3 ± 6.3 mg/g-liver
- Degree of fatty liver (histopathological examination) ([1]; 50 mg/kg oral): ± ± and ± ± ± + ±
- Total lipid [1, 8]: 72.3 ± 9.6 mg/g-liver
- Triglyceride [1, 8]: 23.6 ± 3.8 mg/g-liver
- Degree of fatty liver (histopathological examination) ([1]; 250 mg/kg oral): - - ± ± - ±
- Blood Sugar (percent of 0 min value) ([2]; 0 min): 100%
- Blood Sugar ([2]; 0 min): 134 ± 24.8 mg/dL
- Blood Sugar ([2]; 30 min): 258 ± 22.2 mg/dL
- Blood Sugar ([2]; 60 min): 232 ± 13.0 mg/dL
- Blood Sugar ([2]; 90 min): 190 ± 23.6 mg/dL
- Blood Sugar ([2]; 120 min): 152 ± 23.4 mg/dL
- Blood Sugar (percent of 0 min value) ([2]; 30 min): 192%
- Blood Sugar (percent of 0 min value) ([2]; 60 min): 173%
- Blood Sugar (percent of 0 min value) ([2]; 90 min): 142%
- Blood Sugar (percent of 0 min value) ([2]; 120 min): 113%
- Triglyceride (content in the liver, as triolein) [3]: 10.4 ± 1.6 mg/g
- Triglyceride in liver [4]: 4.6 ± 0.73 mg/g
- p-GPT [4]: 63±23 Karmen unit
- Degree of cirrhosis (histopathological examination) ([5]; 1 week): + +++ + ++ +++
- Degree of cirrhosis (histopathological examination) ([5]; 2 weeks): ++ ±
- Degree of cirrhosis (histopathological examination) ([5]; 8 weeks): + ± and +++ ±
- p-GOT activity ([5]; 1 week): 277±135 Karmen unit
- p-GPT activity ([5]; 1 week): 81.6±25.9 Karmen unit
- p-GOT activity ([5]; 2 weeks): 96.8±2.6 Karmen unit
- p-GPT activity ([5]; 2 weeks): 28.8±3.0 Karmen unit
- p-GOT activity ([5]; 4 weeks): 64.0±5.5 Karmen unit
- p-GPT activity ([5]; 4 weeks): 40.6±3.8 Karmen unit
- p-GOT activity ([5]; 8 weeks): 91.8±7.2 Karmen unit
- p-GPT activity ([5]; 8 weeks): 32.8±6.1 Karmen unit
- bile flow ([6]; 1 hour after treatment): 110±4.2
- excretion of biliary salt ([6]; 1 hour after treatment): 105±13
- bile flow ([6]; 2 hours after treatment): 115±6.3
- excretion of biliary salt ([6]; 2 hours after treatment): 125±20
- bile flow ([6]; 3 hours after treatment): 110±7.2
- excretion of biliary salt ([6]; 3 hours after treatment): 132±26
- bile flow ([6]; 4 hours after treatment): 112±8.5
- excretion of biliary salt ([6]; 4 hours after treatment): 115±23
- bile flow ([6]; 5 hours after treatment): 92±4.7
- excretion of biliary salt ([6]; 5 hours after treatment): 81±7.2
- Amount of total biliary salts excreted for 5 hours relative to control ([6]; versus control): 1.61 times
- Quantity of total excreted bile for 5 hours relative to control ([6]; versus control): 1.15 times
